Test results as given in US20100004166A1, “Endothelin and Endothelin Receptor Agonists in the Treatment of Metabolic Diseases” (priority 2007, published 2010).
“Also recorded” adds a separate entry of the source. Where a SMILES comes first, the peptide text is derived from it. Bridges are numbered along the chain shown (N, C = ends). Where no end group is shown, it is not given here.

biological target: T1, ETA (Homo sapiens, UniProt P25101); test: not given; conditions: read-out: affinity for ETA; cited from earlier work
T1 sequence (P25101 21-427): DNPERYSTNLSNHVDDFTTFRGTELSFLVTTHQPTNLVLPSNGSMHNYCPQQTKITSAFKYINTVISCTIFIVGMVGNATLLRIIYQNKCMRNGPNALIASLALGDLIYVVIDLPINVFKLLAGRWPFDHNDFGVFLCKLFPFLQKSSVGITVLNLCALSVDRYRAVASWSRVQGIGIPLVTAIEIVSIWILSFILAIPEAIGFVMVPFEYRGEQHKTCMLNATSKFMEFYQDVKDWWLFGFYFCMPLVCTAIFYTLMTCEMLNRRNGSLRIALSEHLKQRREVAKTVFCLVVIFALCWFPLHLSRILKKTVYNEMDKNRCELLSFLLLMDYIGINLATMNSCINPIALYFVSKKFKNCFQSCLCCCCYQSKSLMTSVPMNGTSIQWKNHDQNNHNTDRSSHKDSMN

| Molecule | Kd [nM] |
| --- | --- |
| CC[C@H](C)[C@H](NC(=O)[C@H](CC(=O)O)NC(=O)[C@H](CC(C)C)NC(=O)[C@H](Cc1c[nH]cn1)NC(=O)[C@@H]1CSSC[C@H](N)C(=O)N[C@@H]([C@@H](C)O)C(=O)N[C@H]2CSSC[C@H](NC(=O)[C@H](CCC(=O)O)NC(=O)[C@H](CCCCN)NC(=O)[C@H](CC(=O)O)NC(=O)[C@H](CCCCN)NC(=O)[C@H](Cc3ccc(O)cc3)NC(=O)[C@H]([C@@H](C)O)NC(=O)[C@H](Cc3ccccc3)NC2=O)C(=O)N[C@@H](C(C)C)C(=O)N[C@@H](Cc2ccc(O)cc2)C(=O)N[C@@H](Cc2ccc(O)cc2)C(=O)N1)C(=O)N[C@H](C(=O)N[C@@H](Cc1c[nH]c2ccccc12)C(=O)O)[C@@H](C)CC [ET-3, reference compound] | 6.5 |

system: not listed separately; test: Body weight and body fat in diet induced obese (DIO) mice, continuous s.c. osmotic pump infusion; format: in vivo; conditions: DIO mice on high fat diet, 300 nmol/kg/d, infused continuously 2-4 weeks (28 days); listed as adenoregulin
Experimental: Materials & Methods: Diet induced obese (DIO) mice were employed. Obesity was induced by feeding a pelleted high-fat diet (58% of calories, #D12331, Research Diets, New Brunswick, N.J.) starting at 4 wk of age (20) for 6 wk (4 wk for the long-term study) prior to treatment. The mice then remained on this diet in powdered form throughout the treatment period unless otherwise noted. All animals were housed under a 12 hr:12 hr light-dark cycle at 21-23° C., and allowed ad libitum access to food pre- and post-treatment. […] (20 nmol/kg/d), or adenoregulin [SEQ ID NO: 33] (300 nmol/kg/d) were administered to DIO mice by Alzet® s.c. osmotic pumps. Mice were fed pelleted high-fat diet, and body weights and food intake were recorded weekly.
Body weight (BWt), at each time point, reflects the effect of test sample on BWt when expressed as % change relative to vehicle treated. For a treatment group:
% BWt loss=100*[(mean BWt change vehicle treated)−(mean BWt change treated)/mean BWt at day 0]
[…]
(§1) Significant test sample effects were identified by ANOVA (p<0.05). Where a significant difference exists, test means were compared to the control mean using Dunnett's test. One-way ANOVA with Dunnett's post test was performed using GraphPad Prism® version 3.01 for Windows, GraphPad Software, San Diego Calif.

| Molecule | body weight |
| --- | --- |
| GLWSKIKEVGKEAAKAAAKAAGKAALGAVSEAV-NH2 [SEQ ID NO 33] | sustained weight reducing effect; also recorded: reduction of body weight |

same assay, conditions: DIO mice on high fat diet, 300 nmol/kg/d, vs vehicle on high-fat or low-fat diet; listed as adenoregulin

| Molecule | body fat |
| --- | --- |
| GLWSKIKEVGKEAAKAAAKAAGKAALGAVSEAV-NH2 [SEQ ID NO 33] | reduction in body fat; also recorded: reduction of body fat |

same assay, conditions: DIO mice, 20 nmol/kg/d continuously infused

| Molecule | sickness behavior |
| --- | --- |
| CC[C@H](C)[C@H](NC(=O)[C@H](CC(=O)O)NC(=O)[C@H](CC(C)C)NC(=O)[C@H](Cc1cnc[nH]1)NC(=O)[C@@H]1CSSC[C@H](N)C(=O)N[C@@H](CO)C(=O)N[C@H]2CSSC[C@H](NC(=O)[C@H](CCC(=O)O)NC(=O)[C@H](CCCCN)NC(=O)[C@H](CC(=O)O)NC(=O)[C@H](CCSC)NC(=O)[C@H](CC(C)C)NC(=O)[C@H](CO)NC(=O)[C@H](CO)NC2=O)C(=O)N[C@@H](C(C)C)C(=O)N[C@@H](Cc2ccc(O)cc2)C(=O)N[C@@H](Cc2ccccc2)C(=O)N1)C(=O)N[C@H](C(=O)N[C@@H](Cc1c[nH]c2ccccc12)C(=O)O)[C@@H](C)CC [ET-1, reference compound] | without observable sickness behavior |

system: not listed separately; test: Reduction of food intake in fasted mice after i.p. injection of peptide; format: in vivo, NIH/Swiss mice; conditions: fasted mice, i.p.
Text: In yet another embodiment, the ET receptor agonist is adenoregulin. See, e.g., Donly et al., Proc. Natl. Acad. Sci. USA 89:10960-963 (1992); Amiche et al., Biochem. Biophys. Res. Comm. 191:983-90 (1993). Known sequences for adenoregulin include Genbank sequences X70278 and X72387. Originally isolated from the skin of the frog Phyllomedusa bicolor, adenoregulin belongs to the family of dermaseptins, a family of antimicrobial peptides. See, e.g., Amiche et al., J. Biol. Chem. 269:17847-52 (1994); Zhou et al., Biotechnol. Lett. 27:725-30 (2005).
Materials & Methods: NIH/Swiss mice were fasted approximately 17 hours prior to initiation of the experiment. Peptides were injected intraperitoneally (i.p.) at time zero using doses as indicated. All mice received an intraperitoneal injection (200 μl) of either vehicle or compounds at doses indicated and were immediately presented with a pre-weighed food pellet. The food pellet was weighed at 30-minute, 1-hr, and 2-hr intervals after presentation to determine the amount of food eaten. Each point reflects n=4 for mice receiving an endothelin or endothelin agonist or n=3 for mice receiving vehicle.
Food intake values reflect, at each time point, effect of test sample on food intake is expressed as % change relative to vehicle using the formula provided below.
% basal=−100*[1−(food intake of treatment group/food intake of vehicle group)].
as §1, with “Diego,” for “Diego”, “Calif. USA.” for “Calif.”

| Molecule | observable negative effects |
| --- | --- |
| CC[C@H](C)[C@H](NC(=O)[C@H](CC(=O)O)NC(=O)[C@H](CC(C)C)NC(=O)[C@H](Cc1c[nH]cn1)NC(=O)[C@@H]1CSSC[C@H](N)C(=O)N[C@@H]([C@@H](C)O)C(=O)N[C@H]2CSSC[C@H](NC(=O)[C@H](CCC(=O)O)NC(=O)[C@H](CCCCN)NC(=O)[C@H](CC(=O)O)NC(=O)[C@H](CCCCN)NC(=O)[C@H](Cc3ccc(O)cc3)NC(=O)[C@H]([C@@H](C)O)NC(=O)[C@H](Cc3ccccc3)NC2=O)C(=O)N[C@@H](C(C)C)C(=O)N[C@@H](Cc2ccc(O)cc2)C(=O)N[C@@H](Cc2ccc(O)cc2)C(=O)N1)C(=O)N[C@H](C(=O)N[C@@H](Cc1c[nH]c2ccccc12)C(=O)O)[C@@H](C)CC [ET-3, reference compound] | without observable negative effects |
| CC[C@H](C)[C@H](NC(=O)[C@H](CC(=O)O)NC(=O)[C@H](CC(C)C)NC(=O)[C@H](Cc1cnc[nH]1)NC(=O)[C@@H]1CSSC[C@H](N)C(=O)N[C@@H](CO)C(=O)N[C@H]2CSSC[C@H](NC(=O)[C@H](CCC(=O)O)NC(=O)[C@H](CCCCN)NC(=O)[C@H](CC(=O)O)NC(=O)[C@H](CCSC)NC(=O)[C@H](CC(C)C)NC(=O)[C@H](CO)NC(=O)[C@H](CO)NC2=O)C(=O)N[C@@H](C(C)C)C(=O)N[C@@H](Cc2ccc(O)cc2)C(=O)N[C@@H](Cc2ccccc2)C(=O)N1)C(=O)N[C@H](C(=O)N[C@@H](Cc1c[nH]c2ccccc12)C(=O)O)[C@@H](C)CC [ET-1, reference compound] | without observable negative effects |
| CC[C@H](C)[C@H](NC(=O)[C@H](CC(=O)O)NC(=O)[C@H](CC(C)C)NC(=O)[C@H](Cc1cnc[nH]1)NC(=O)[C@@H]1CSSC[C@H](N)C(=O)N[C@@H](CO)C(=O)N[C@H]2CSSC[C@H](NC(=O)[C@H](CCC(=O)O)NC(=O)[C@H](CCCCN)NC(=O)[C@H](CC(=O)O)NC(=O)[C@H](CC(C)C)NC(=O)[C@H](Cc3c[nH]c4ccccc34)NC(=O)[C@H](CO)NC(=O)[C@H](CO)NC2=O)C(=O)N[C@@H](C(C)C)C(=O)N[C@@H](Cc2ccc(O)cc2)C(=O)N[C@@H](Cc2ccccc2)C(=O)N1)C(=O)N[C@H](C(=O)N[C@@H](Cc1c[nH]c2ccccc12)C(=O)O)[C@@H](C)CC [ET-2, reference compound] (H-CSCSSWLDKECVYFCHLDIIW-OH; disulfide 1-15, 3-11) | without observable negative effects |

same assay, conditions: fasted mice, i.p., 30 minutes

| Molecule | food intake at 30 minutes |
| --- | --- |
| N-Succinyl-[Glu^9, Ala^11,15]-Endothelin 1 fragment 8-21 [IRL1620, reference compound] | reduced food intake |

same assay, conditions: fasted mice, i.p., 60 minutes

| Molecule | food intake at 60 minutes |
| --- | --- |
| N-Succinyl-[Glu^9, Ala^11,15]-Endothelin 1 fragment 8-21 [IRL1620, reference compound] | reduced food intake |

same assay, conditions: fasted mice, i.p., 120 minutes

| Molecule | food intake at 120 minutes |
| --- | --- |
| N-Succinyl-[Glu^9, Ala^11,15]-Endothelin 1 fragment 8-21 [IRL1620, reference compound] | no effect |

same assay, conditions: fasted mice, peripheral (i.p.) administration, all time points examined (30, 60, 120 min)

| Molecule | reduction in food intake |
| --- | --- |
| c(CTCNDMTDEECLNFCHQDVIW)-OH [Sarafotoxin S6c, reference compound] | dose-dependent reduction in food intake |

same assay, conditions: food intake (FI) at 120 min; dose not given

| Molecule | % Inhibition of FI at 120 mi [%] |
| --- | --- |
| 47 (GLWSKIKEVGKEAAKAAAKAAGKAALGAVSEAVGEQ-OH) [compound 47] | 50.0 |
| 64 (GMWGSLLKGVATVVKHVLPHALSSQQS-OH) [compound 64] | 22.0 |
| 37 (GLWSKIKEVGKEAAKAAAKAAGKAALGAVSEAL-NH2) [compound 37] | 79.0 |
| 50 (GLWSAIKEVGKEAAKAAAKAAGKAALGAVSEAV-NH2) [compound 50] | 22.3 |
| 60 (ALWKTLLKKVGKVAGKAVLNAVTNMANQNEQ; not fully specified (C-terminus); printed as ALWKTLLKKVGKVAGKAVLNAVTNMANQNEQ-OH) [compound 60] | 53.0 |
| 49 (GLWSKIKEVGKEAAKAAAKAAGKAALGAVSEA-NH2) [compound 49] | 13.5 |
| 58 (GLWSKIKEVGKEAAKAAAKAAGKAALGAVSAAV-NH2) [compound 58] | 78.9 |
| 57 (GLWSKIKEVGKEAAKAAAKAAGKAALGAVAEAV-NH2) [compound 57] | 74.8 |
| 33 (GLWSKIKEVGKEAAKAAAKAAGKAALGAVSEAV-NH2) [compound 33] | 77.6 |
| 59 (ALWKTMLKKLGTMALHAGKAALGAAADTISQGTQ-OH) [compound 59] | 58.0 |
| 46 (GLWSKIKEVGKEAAKAAAKAAGKAALGAVSEA-NH2) [compound 46] | 17.0 |
| 61 (ALWMTLLKKVLKAAAKALNAVLVGANA-OH) [compound 61] | 35.0 |
| 43 (GLWSKIKEVGKEAAKAAAKAAGKAALGAVSEAP-NH2) [compound 43] | 37.0 |
| 45 (GLWSKIKEVGKEAAKAAAKAAGKAALGAVSEAH-NH2) [compound 45] | 23.0 |
| 63 (GMWSKIKNAGKAAAKASKKAAGKAALGAVSEALGEQ-OH) [compound 63] | 50.0 |
| 41 (GLWSKIKEVGKEAAKAAAKAAGKAALGAVSEAA-NH2) [compound 41] | 54.0 |
| 53 (GLWSKIKEVGKEAAKAAAKAAGKAALGAASEAV-NH2) [compound 53] | 33.6 |
| 38 (GLWSKIKEVGKEAAKAAAKAAGKAALGAVSEAI-NH2) [compound 38] | 78.0 |
| 54 (GAWSKIKEVGKEAAKAAAKAAGKAALGAVSEAV-NH2) [compound 54] | 37.3 |
| 52 (ALWSKIKEVGKEAAKAAAKAAGKAALGAVSEAV-NH2) [compound 52] | 32.3 |
| 35 (GLWSKIKEVGKEAAKAAAKAAGKAALGAVSEA-NH2) [compound 35] | 28.9 |
| 40 (GLWSKIKEVGKEAAKAAAKAAGKAALGAVSEAW-NH2) [compound 40] | 61.0 |
| 56 (GLWAKIKEVGKEAAKAAAKAAGKAALGAVSEAV-NH2) [compound 56] | 71.7 |
| 51 (GLASKIKEVGKEAAKAAAKAAGKAALGAVSEAV-NH2) [compound 51] | 25.8 |
| 42 (GLWSKIKEVGKEAAKAAAKAAGKAALGAVSEAK-NH2) [compound 42] | 48.0 |
| 44 (GLWSKIKEVGKEAAKAAAKAAGKAALGAVSEAR-NH2) [compound 44] | 34.0 |
| 36 (GLWSKIKEVGKEAAKAAAKAAGKAALGAVSEAF-NH2) [compound 36] | 92.0 |
| 62 (ALWKTLLKKVLKA-NH2) [compound 62] | 28.2 |
| 55 (GLWSKIKEVGKEAAKAAAKAAGKAALGAVSEAA-NH2) [compound 55] | 54.0 |
| 39 (GLWSKIKEVGKEAAKAAAKAAGKAALGAVSEAY-NH2) [compound 39] | 61.0 |

same assay, conditions: rodents; doses estimated to be less than those exerting antibiotic effects

| Molecule | food intake |
| --- | --- |
| GLWSKIKEVGKEAAKAAAKAAGKAALGAVSEAV-NH2 [SEQ ID NO 33] | inhibited food intake |
